From US7195769B2, “Pharmaceutical compositions of anti-tubercular drugs and process for their preparation” (Panacea Biotec Limited, priority 2000, dated 2007)

Test: pH dependence of rifampicin degradation in presence of isoniazid
Type: physicochemical
Source text: Thereafter, above pH 3 the degradation is minimal.

For `CO[C@H]1/C=C/O[C@@]2(C)Oc3c(C)c(O)c4c(O)c(c(/C=N/N5CCN(C)CC5)c(O)c4c3C2=O)NC(=O)/C(C)=C\C=C\[C@H](C)[C@H](O)[C@@H](C)[C@@H](O)[C@@H](C)[C@H](OC(C)=O)[C@@H]1C` [rifampicin], the “degradation of rifampicin in presence of isoniazid” value (from here on “degradation of rifampicin”) (above pH 3) was “minimal”, the “degradation of rifampicin” value (pH around 1) was “minimum” and the “degradation of rifampicin” value (pH between 2 and 3) was “increases abruptly”.
